In article PMC10786919, “Design-rules for stapled peptides with in vivo activity and their application to Mdm2/X antagonists” (Nature Communications, 2024):
In brackets after ≈: the same amount, converted by molar mass. Positions of bridges follow the written chain, without caps; N, C: chain ends. Non-standard residues stand in square brackets, D forms with d. Residues, ends and D or L forms follow the SMILES beside them. Lys(N3) = [N-]=[N+]=NCCCC[C@H](N)C(=O)O; R8 = C=CCCCCCC[C@@](C)(N)C(=O)O; Cba = N[C@@H](CC1CCC1)C(=O)O; S5 = C=CCCC[C@](C)(N)C(=O)O; βAla = NCCC(=O)O

Columns and labels:
[1] = Lactate dehydrogenase (LDH) release assay; format: cell-based; conditions: LDH: Cytotoxicity assay EC50
Summary of the method: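 Read-out was lactate dehydrogenase release, reflecting loss of membrane integrity, in reporter-engineered HCT116 cells (p53-responsive β-lactamase) seeded at 8000 cells per well. Final DMSO was 0.5%, and reported values are geometric means from three or more biological repeats.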

[2] = Solubility assay (kinetic solubility, PBS pH 7); format: physicochemical; conditions: pH 7, PBS; for solubility kinetic: pH 7, aqueous buffer, kinetic from dmso stock, read-out: Solubility
Summary of the method: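 Reference standards were made by diluting the 10 mM stock to 100 µM in acetonitrile:methanol:DMSO 10:80:10. Solubility in µM was calculated as the sample peak area divided by the standard peak area, multiplied by the standard concentration.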

Ca Ski cell line = conditions: 72 h
Procedure: (§1) The medium for CellSensor™ p53RE-bla HCT-116 cells was McCoy’s 5 A Medium (GIBCO16600-002) supplied with 10% FBS (Hyclone, SH30406.05), 100 U/100ug/ml of Pen/Strep (SolarBio, P1400) and 5 μg/ml of blasticidin (GIBCO, A11139). The medium for Ca Ski cells was RPMI1640 (Hyclone, SH3080901B) supplied with 10% FBS and 100 U/100ug/ml of Pen/Strep. All cells were kept in humidified incubators with 5% CO2 at 37 °C. Culture media was changed after one day of subculturing and cells were passed again when there was 70–80% confluence. One day before the assay, the cells were trypsinized, collected, counted and viability was determined. […] The plates were kept in humidified incubators with 5% CO2 at 37 °C overnight. Compounds were prepared as a 10 point, 3x serial dilution in 100% DMSO, starting from a top concentration of 10 mM. […] At the end of the incubation the assay plate was equilibrated at room temperature for approximately 30 minutes prior to the addition of 25 uL of CellTiter-Glo® 2.0 Reagent. The assay plate was mixed for 2 minutes on an orbital shaker to induce cell lysis. Next, the plate was incubated at room temperature for 10 minutes to stabilize the luminescent signal prior to recording the luminescence on a plate reader.

[3] = tested on: CellSensor p53RE-bla HCT-116 Cell Line; conditions: 72 h
Procedure: as §1

in vitro = conditions: Nanoclick permeability assay EC50
Summary of the method: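 Azido-peptide permeability was read as loss of NanoBRET signal (donor 450 nm, acceptor 610 nm) after adding NanoBret618-azide at 10 μM final.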

[4] = Experimental LogD (partition coefficient); conditions: for logD: not stated, Partition Coeff LogD

| SMILES | EC50 [1] [µM] | solubility kinetic [2] [µM] | EC50 (Ca Ski cell line) [µM] | EC50 [3] [µM] | cell entry EC50 (in vitro) [nM] | EPSA (physchem) [A^2] | logD [4] | Solubility [2] | Partition Coeff LogD [4] |
| --- | --- | --- | --- | --- | --- | --- | --- | --- | --- |
| CC(=O)N[C@@H](CCCCN=[N+]=[N-])C(=O)NCCC(=O)N[C@@H](CC(C)C)C(=O)N[C@@H](CCC(=O)O)C(=O)N[C@@H](Cc1ccccc1)C(=O)N[C@]1(C)CCCCCCC=CCCC[C@@](C)(C(=O)N[C@@H](CO)C(=O)N[C@@H](C)C(=O)N[C@@H](C)C(N)=O)NC(=O)[C@H](CC2CCC2)NC(=O)[C@H](CCC(N)=O)NC(=O)[C@H](C)NC(=O)[C@H](Cc2c[nH]c3ccccc23)NC(=O)[C@H](Cc2ccc(O)cc2)NC(=O)[C@H](CCC(=O)O)NC1=O [MP-179] | > 50 | 102 (≈ 205 µg/mL) | > 49.8 | 13.6 | 173 | 243 | 2.5 |  |  |
| CC(=O)N[C@@H](CCCCN=[N+]=[N-])C(=O)NCCC(=O)N[C@@H](CC(C)C)C(=O)N[C@H](C(=O)N[C@@H](Cc1ccccc1)C(=O)N[C@]1(C)CCCCCCC=CCCC[C@@](C)(C(=O)N[C@@H](CO)C(=O)N[C@@H](C)C(=O)N[C@@H](C)C(N)=O)NC(=O)[C@H](CC2CCC2)NC(=O)[C@H](CCC(=O)O)NC(=O)[C@H](C)NC(=O)[C@H](Cc2c[nH]c3ccccc23)NC(=O)[C@H](Cc2ccc(O)cc2)NC(=O)[C@H](CCC(=O)O)NC1=O)[C@@H](C)O [MP-181] | > 50 | 179 (≈ 353 µg/mL) | > 49.8 | 4.64 | 304 | 249 | 2.74 |  |  |
| CC(=O)N[C@@H](CCCCN=[N+]=[N-])C(=O)NCCC(=O)N[C@@H](CC(C)C)C(=O)N[C@H](C(=O)N[C@@H](Cc1ccccc1)C(=O)N[C@]1(C)CCCCCCC=CCCC[C@@](C)(C(=O)N[C@@H](CCC(=O)O)C(=O)N[C@@H](C)C(=O)N[C@@H](C)C(N)=O)NC(=O)[C@H](CC2CCC2)NC(=O)[C@H](CCC(N)=O)NC(=O)[C@H](C)NC(=O)[C@H](Cc2c[nH]c3ccccc23)NC(=O)[C@H](Cc2ccc(O)cc2)NC(=O)[C@H](CCC(=O)O)NC1=O)[C@@H](C)O [MP-182] | > 50 | 163 (≈ 328 µg/mL) | > 49.8 | 1.31 | 223 | 251 | 2.5 |  |  |
| CC(=O)N[C@@H](CCCCN=[N+]=[N-])C(=O)NCCC(=O)N[C@@H](Cc1c[nH]c2ccccc12)C(=O)N[C@H](C(=O)N[C@@H](Cc1ccccc1)C(=O)N[C@]1(C)CCCCCCC=CCCC[C@@](C)(C(=O)N[C@@H](CO)C(=O)N[C@@H](C)C(=O)N[C@@H](C)C(N)=O)NC(=O)[C@H](CC2CCC2)NC(=O)[C@H](CCC(N)=O)NC(=O)[C@H](C)NC(=O)[C@H](Cc2c[nH]c3ccccc23)NC(=O)[C@H](Cc2ccc(O)cc2)NC(=O)[C@H](CCC(=O)O)NC1=O)[C@@H](C)O [MP-183] (Ac-[Lys(N3)][βAla]WTF[R8]EYWAQ[Cba][S5]SAA-NH2; staple 6-13) | > 50 | 19 (≈ 38.8 µg/mL) | 38.5 | 5.74 | 229 | 247 | 3.04 |  |  |
| CC(=O)N[C@@H](CCCCN=[N+]=[N-])C(=O)NCCC(=O)N[C@@H](CC(C)C)C(=O)N[C@H](C(=O)N[C@@H](Cc1ccccc1)C(=O)N[C@]1(C)CCCCCCC=CCCC[C@@](C)(C(=O)N[C@@H](CO)C(=O)N[C@@H](C)C(=O)N[C@@H](C)C(N)=O)NC(=O)[C@H](CC2CCC2)NC(=O)[C@H](Cc2c[nH]c3ccccc23)NC(=O)[C@H](C)NC(=O)[C@H](Cc2c[nH]c3ccccc23)NC(=O)[C@H](Cc2ccc(O)cc2)NC(=O)[C@H](CCC(=O)O)NC1=O)[C@@H](C)O [MP-187] (Ac-[Lys(N3)][βAla]LTF[R8]EYWAW[Cba][S5]SAA-NH2; staple 6-13) | > 50 | 3.5 (≈ 7.1 µg/mL) | > 49.8 | 7.27 | 247 | 242 | 3.14 |  |  |
| CC(=O)N[C@@H](CCCCN=[N+]=[N-])C(=O)NCCC(=O)N[C@@H](CC(C)C)C(=O)N[C@H](C(=O)N[C@@H](Cc1ccccc1)C(=O)N[C@]1(C)CCCCCCC=CCCC[C@@](C)(C(=O)N[C@@H](Cc2c[nH]c3ccccc23)C(=O)N[C@@H](C)C(=O)N[C@@H](C)C(N)=O)NC(=O)[C@H](CC2CCC2)NC(=O)[C@H](CCC(N)=O)NC(=O)[C@H](C)NC(=O)[C@H](Cc2c[nH]c3ccccc23)NC(=O)[C@H](Cc2ccc(O)cc2)NC(=O)[C@H](CCC(=O)O)NC1=O)[C@@H](C)O [MP-188] (Ac-[Lys(N3)][βAla]LTF[R8]EYWAQ[Cba][S5]WAA-NH2; staple 6-13) | > 50 | 50 (≈ 103 µg/mL) | 30.4 | 4.79 | 374 | 249 | 3.33 |  |  |
| CC(=O)N[C@@H](CCCCN=[N+]=[N-])C(=O)NCCC(=O)N[C@@H](CCCNC(=N)N)C(=O)N[C@H](C(=O)N[C@@H](Cc1ccccc1)C(=O)N[C@]1(C)CCCCCCC=CCCC[C@@](C)(C(=O)N[C@@H](CO)C(=O)N[C@@H](C)C(=O)N[C@@H](C)C(N)=O)NC(=O)[C@H](CC2CCC2)NC(=O)[C@H](CCC(N)=O)NC(=O)[C@H](C)NC(=O)[C@H](Cc2c[nH]c3ccccc23)NC(=O)[C@H](Cc2ccc(O)cc2)NC(=O)[C@H](CCC(=O)O)NC1=O)[C@@H](C)O [MP-552] (Ac-[Lys(N3)][βAla]RTF[R8]EYWAQ[Cba][S5]SAA-NH2; staple 6-13) | > 50 | 2 (≈ 4.03 µg/mL) | 39.9 | 4.32 | 89.6 | 230 | 2.81 |  |  |
| CC(=O)N[C@@H](CCCCN=[N+]=[N-])C(=O)NCCC(=O)N[C@@H](CC(C)C)C(=O)N[C@@H](CCCNC(=N)N)C(=O)N[C@@H](Cc1ccccc1)C(=O)N[C@]1(C)CCCCCCC=CCCC[C@@](C)(C(=O)N[C@@H](CO)C(=O)N[C@@H](C)C(=O)N[C@@H](C)C(N)=O)NC(=O)[C@H](CC2CCC2)NC(=O)[C@H](CCC(N)=O)NC(=O)[C@H](C)NC(=O)[C@H](Cc2c[nH]c3ccccc23)NC(=O)[C@H](Cc2ccc(O)cc2)NC(=O)[C@H](CCC(=O)O)NC1=O [MP-553] (Ac-[Lys(N3)][βAla]LRF[R8]EYWAQ[Cba][S5]SAA-NH2; staple 6-13) | > 50 |  | > 49.8 | 6.78 | 174 | 232 | 2.86 | Poorly Behaved |  |
| CC(=O)N[C@@H](CCCCN=[N+]=[N-])C(=O)NCCC(=O)N[C@@H](CC(C)C)C(=O)N[C@H](C(=O)N[C@@H](Cc1ccccc1)C(=O)N[C@]1(C)CCCCCCC=CCCC[C@@](C)(C(=O)N[C@@H](CO)C(=O)N[C@@H](C)C(=O)N[C@@H](C)C(N)=O)NC(=O)[C@H](CC2CCC2)NC(=O)[C@H](CCC(N)=O)NC(=O)[C@H](C)NC(=O)[C@H](Cc2c[nH]c3ccccc23)NC(=O)[C@H](Cc2ccc(O)cc2)NC(=O)[C@H](CCCNC(=N)N)NC1=O)[C@@H](C)O [MP-554] (Ac-[Lys(N3)][βAla]LTF[R8]RYWAQ[Cba][S5]SAA-NH2; staple 6-13) | 30.4 |  | 11.4 | 5.79 | 586 | 215 | 3.28 | Poorly Behaved |  |
| CC(=O)N[C@@H](CCCCN=[N+]=[N-])C(=O)NCCC(=O)N[C@@H](CC(C)C)C(=O)N[C@H](C(=O)N[C@@H](Cc1ccccc1)C(=O)N[C@]1(C)CCCCCCC=CCCC[C@@](C)(C(=O)N[C@@H](CO)C(=O)N[C@@H](C)C(=O)N[C@@H](C)C(N)=O)NC(=O)[C@H](CC2CCC2)NC(=O)[C@H](CCC(N)=O)NC(=O)[C@H](CCCNC(=N)N)NC(=O)[C@H](Cc2c[nH]c3ccccc23)NC(=O)[C@H](Cc2ccc(O)cc2)NC(=O)[C@H](CCC(=O)O)NC1=O)[C@@H](C)O [MP-555] (Ac-[Lys(N3)][βAla]LTF[R8]EYWRQ[Cba][S5]SAA-NH2; staple 6-13) | > 50 | 2 (≈ 4.11 µg/mL) | > 49.8 | 6.25 | 249 | 220 | 2.92 |  |  |
| CC(=O)N[C@@H](CCCCN=[N+]=[N-])C(=O)NCCC(=O)N[C@@H](CC(C)C)C(=O)N[C@H](C(=O)N[C@@H](Cc1ccccc1)C(=O)N[C@]1(C)CCCCCCC=CCCC[C@@](C)(C(=O)N[C@@H](CCCNC(=N)N)C(=O)N[C@@H](C)C(=O)N[C@@H](C)C(N)=O)NC(=O)[C@H](CC2CCC2)NC(=O)[C@H](CCC(N)=O)NC(=O)[C@H](C)NC(=O)[C@H](Cc2c[nH]c3ccccc23)NC(=O)[C@H](Cc2ccc(O)cc2)NC(=O)[C@H](CCC(=O)O)NC1=O)[C@@H](C)O [MP-557] (Ac-[Lys(N3)][βAla]LTF[R8]EYWAQ[Cba][S5]RAA-NH2; staple 6-13) | > 50 |  | > 49.8 | 2.04 | 136 | 219 |  | Poorly Behaved | Poorly Behaved |
